Experimental data published in patent US20240207454A1, “NEURO-BEHAVIORAL ASSAY FOR PHYSIOLOGICAL EVALUATION OF WATER-SOLUBLE ANESTHETICS” (Northeastern University, priority 2022, published 2024).
Values joined by “and” are separate entries in the source; they are usually repeats but may differ in a detail not shown here. Identical values can stand only once. Like-named read-outs stand apart in the source and are kept apart here.

Experiments:
[1] = molecular target: T1, GABAA receptor subtype α1β2γ2 (Homo sapiens, UniProt P14867+P18507+P47870); conditions: human embryonic kidney 293 cells expressing α1β2γ2; cited from earlier work
T1 construct: host or cells: human embryonic kidney 293 cells (heterologous expression)
T1 sequence (P14867 28-456): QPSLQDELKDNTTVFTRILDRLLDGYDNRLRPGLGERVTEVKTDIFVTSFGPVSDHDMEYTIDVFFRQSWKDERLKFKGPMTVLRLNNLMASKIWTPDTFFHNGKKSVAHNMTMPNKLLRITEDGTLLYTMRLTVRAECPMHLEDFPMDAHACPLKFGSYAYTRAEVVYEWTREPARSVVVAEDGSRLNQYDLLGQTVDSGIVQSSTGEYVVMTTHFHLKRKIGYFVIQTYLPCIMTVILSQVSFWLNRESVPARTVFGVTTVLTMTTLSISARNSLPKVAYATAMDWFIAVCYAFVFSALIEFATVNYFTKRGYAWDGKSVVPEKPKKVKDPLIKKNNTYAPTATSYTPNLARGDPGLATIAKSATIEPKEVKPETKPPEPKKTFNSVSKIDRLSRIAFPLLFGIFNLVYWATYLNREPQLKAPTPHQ
T1 sequence (P47870 25-512 limits assumed): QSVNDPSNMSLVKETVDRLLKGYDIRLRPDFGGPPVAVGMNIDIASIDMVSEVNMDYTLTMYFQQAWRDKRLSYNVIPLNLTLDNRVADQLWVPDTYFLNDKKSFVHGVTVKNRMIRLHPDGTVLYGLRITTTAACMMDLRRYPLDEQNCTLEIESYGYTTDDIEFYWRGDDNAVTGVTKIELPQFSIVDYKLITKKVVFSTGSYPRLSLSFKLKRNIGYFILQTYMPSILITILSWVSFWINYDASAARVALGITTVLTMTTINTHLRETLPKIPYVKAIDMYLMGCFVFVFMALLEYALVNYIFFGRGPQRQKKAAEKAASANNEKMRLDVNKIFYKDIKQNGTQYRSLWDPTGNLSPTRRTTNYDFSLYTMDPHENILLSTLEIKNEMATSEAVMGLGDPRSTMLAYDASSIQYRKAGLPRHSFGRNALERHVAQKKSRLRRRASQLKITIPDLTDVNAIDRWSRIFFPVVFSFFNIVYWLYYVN
T1 sequence (P18507 40-475): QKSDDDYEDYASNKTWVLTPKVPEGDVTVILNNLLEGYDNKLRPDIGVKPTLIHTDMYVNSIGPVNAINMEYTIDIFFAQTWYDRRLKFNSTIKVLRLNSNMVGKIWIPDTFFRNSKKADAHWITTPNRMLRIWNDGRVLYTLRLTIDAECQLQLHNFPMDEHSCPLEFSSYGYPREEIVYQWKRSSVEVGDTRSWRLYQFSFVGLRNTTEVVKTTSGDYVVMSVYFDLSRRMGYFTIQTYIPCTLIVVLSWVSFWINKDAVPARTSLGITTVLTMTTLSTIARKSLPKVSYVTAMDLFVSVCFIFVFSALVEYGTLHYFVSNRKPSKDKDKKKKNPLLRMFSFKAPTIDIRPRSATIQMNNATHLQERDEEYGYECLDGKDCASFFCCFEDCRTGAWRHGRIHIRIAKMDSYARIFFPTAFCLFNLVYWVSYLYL

[2] = system: Apteronotus leptorhynchus; assay: Neuro-behavioral assay: chirps (EOD modulations); assay type: in vivo; conditions: for Number of chirps during the 30 min immediately following anesthesia (mean) / Number of chirps during the 30 min immediately following anesthesia (median) / Number of chirps during the 30 min immediately following anesthesia (range among fish): 2.5% urethane or 0.02% MS-222, n=8 fish
From the text: Previous research has shown that transient modulations of the EOD may occur, both spontaneously and through stimulation with electric signal mimicking the EOD of a conspecific. These modulations are brief (several tens of milliseconds) and involve frequency increases. They are commonly referred to as ‘chirps.’
To identify chirp instances, the time-frequency data {(Tk, fk)}k=q^q+n^wind, q=1, . . . , M−nwind−1, was considered in a moving time window containing nwind+1 samples. The first and last nmed samples in each window are used to establish the instantaneous base frequency before chirping:
to the data set {(ξp,q, ϕp,q)}p=0^n^wind for each q=1, 2, . . . time window. This curve fitting was carried out over a fixed search range α∈[αmin, αmax] discretized evenly using nα+1 number points. For each q=1, 2, . . . time window, the coefficient of determination Rq,i^2 was computed for each point αi=αmin+i (αmax−αmin)/nα, i=0, . . . , nα of the discretized search range. Then, the fitted curve for each q=1, 2, . . . time window as Φ (ξ; ? ), with
Subsequently, using Algorithm 1, contiguous segments of successive windows are identified within qε and for each segment the time window q associated with the maximum ? value is reported together with the corresponding parameter ? and maximum frequency rise Δfq.
Nonlinear regression is performed on data points within these time windows using the three-parameter model Ψ(ξ; α, Δf, τ)=Δf Φ(ξ−τ; α) with initial parameters α= ? , Δf=Δfq, and τ=0. Finally,
as time instance, ? as maximum frequency rise and dchirp,q=ln(7+4√{square root over (3)})/αq is reported as duration of a chirp for each q reported time window with parameter estimates αq, ? , τq. Here the formula for chirp duration corresponds to the half prominence of Ψ(ξ; αq, ? , τq).
The experimental design is outlined in FIG. 2. To determine the baseline EOD frequency, the fish's EOD was recorded for 30 min. Then, the fish was transferred into a glass beaker containing either 2.5% urethane (Acros Organics, New Jersey, USA) or 0.02% MS-222 (Western Chemical, Washington, USA), each dissolved in water from the fish's isolation tank. As a control, the fish was moved into an identical glass beaker containing aquarium water only. The temperatures of the anesthetic solutions or the aquarium water in the beaker were similar (±1° C.) to the temperature of the water in the fish's isolation tank.
The fish was left in the anesthetic solution until both anal fin undulation and opercular movement ceased. It was then returned to its isolation tank where recording of the EOD continued for 180 min. For urethane anesthesia, treatment including transfer to and from the beaker took between 4-5 min. MS-222 anesthesia required longer exposure to the anesthetic so that the entire treatment lasted between 9-15 min. Control experiments were designed such that the handling of the fish and the time the fish spent outside its isolation tank were similar to the corresponding anesthesia experiments (urethane control: 5-8 min; MS-222 control: 7-10 min).
The method described in Eske et al. (2023) was employed for the detection of chirps. This method assumes that the frequency shape of chirps normalized by the peak frequency rise is described in time by function
where ξ is the time coordinate measured from the chirp's peak frequency and α is an unknown parameter identified by the chirp detection method (FIG. 2). This function closely matches the shape of type-2 chirps, and, though to a lesser extent, the shape of type-1 chirps. […]

zebrafish (Danio rerio) = conditions: 60 μL/L eugenol, D. rerio; cited from earlier work
GABAA receptors = conditions: receptors expressed in Xenopus oocytes; cited from earlier work
[3] = system: Apteronotus leptorhynchus; assay: Neuro-behavioral assay: EOD amplitude; assay type: in vivo
Procedure: Differential recording of the fish's EOD was performed through a pair of stainless-steel electrodes built into the shelter tube (FIG. 1). During the experiment, the open ends of the tube were closed with a course plastic mesh netting to ensure that the fish remained close to the recording electrodes, thereby yielding high-quality recordings. This restraint is minimally invasive, as, particularly during daytime, the fish remain in shelter tubes with open ends for prolonged periods of time, often for several hours. The recorded EOD signal was amplified and digitized following a protocol established previously. To examine the effect of eugenol on EOD frequency and chirping behavior, the following experiments were conducted using 8 fish (FIG. 11): First, the baseline EOD was recorded in the fish's home tank (50 cm×30 cm×30 cm) for 30 min. Then, for the 5-min treatment session, the shelter tube with the fish was transferred to a smaller (experimental) tank (30 cm×20 cm×20 cm) containing either eugenol dissolved in aquarium water at a certain concentration (30 μL/L, 45 μL/L, or 60 μL/L; ‘test condition’) or aquarium water only (‘control condition’). The temperature in the experimental tank was similar to the temperature in the home tank (median difference: ±0.2° C.). Finally, the shelter tube with the fish was returned to the home tank, where recording continued for 180 min. Throughout the 215 min of pre-treatment, treatment, and post-treatment, the recording of the EOD was interrupted only for a few seconds during which the fish was transferred between its home tank and the experimental tank. The order of the four treatment conditions was determined using a randomized complete block design. Each test or control experiment in a given fish was conducted on a different day.

red garra (Garra rufa) = conditions: G. rufa, cited from earlier work
[4] = system: epileptiform field potentials and spreading depression; conditions: rat neocortical and hippocampal slices; cited from earlier work
GABAA current = conditions: rat trigeminal ganglia; cited from earlier work
Nav 1.7 = molecular target: T2, Nav 1.7 (Homo sapiens, UniProt Q15858); conditions: Nav 1.7-transfected CHO cells; cited from earlier work
T2 construct: host or cells: CHO cells (transfected)
T2 sequence (Q15858 whole entry): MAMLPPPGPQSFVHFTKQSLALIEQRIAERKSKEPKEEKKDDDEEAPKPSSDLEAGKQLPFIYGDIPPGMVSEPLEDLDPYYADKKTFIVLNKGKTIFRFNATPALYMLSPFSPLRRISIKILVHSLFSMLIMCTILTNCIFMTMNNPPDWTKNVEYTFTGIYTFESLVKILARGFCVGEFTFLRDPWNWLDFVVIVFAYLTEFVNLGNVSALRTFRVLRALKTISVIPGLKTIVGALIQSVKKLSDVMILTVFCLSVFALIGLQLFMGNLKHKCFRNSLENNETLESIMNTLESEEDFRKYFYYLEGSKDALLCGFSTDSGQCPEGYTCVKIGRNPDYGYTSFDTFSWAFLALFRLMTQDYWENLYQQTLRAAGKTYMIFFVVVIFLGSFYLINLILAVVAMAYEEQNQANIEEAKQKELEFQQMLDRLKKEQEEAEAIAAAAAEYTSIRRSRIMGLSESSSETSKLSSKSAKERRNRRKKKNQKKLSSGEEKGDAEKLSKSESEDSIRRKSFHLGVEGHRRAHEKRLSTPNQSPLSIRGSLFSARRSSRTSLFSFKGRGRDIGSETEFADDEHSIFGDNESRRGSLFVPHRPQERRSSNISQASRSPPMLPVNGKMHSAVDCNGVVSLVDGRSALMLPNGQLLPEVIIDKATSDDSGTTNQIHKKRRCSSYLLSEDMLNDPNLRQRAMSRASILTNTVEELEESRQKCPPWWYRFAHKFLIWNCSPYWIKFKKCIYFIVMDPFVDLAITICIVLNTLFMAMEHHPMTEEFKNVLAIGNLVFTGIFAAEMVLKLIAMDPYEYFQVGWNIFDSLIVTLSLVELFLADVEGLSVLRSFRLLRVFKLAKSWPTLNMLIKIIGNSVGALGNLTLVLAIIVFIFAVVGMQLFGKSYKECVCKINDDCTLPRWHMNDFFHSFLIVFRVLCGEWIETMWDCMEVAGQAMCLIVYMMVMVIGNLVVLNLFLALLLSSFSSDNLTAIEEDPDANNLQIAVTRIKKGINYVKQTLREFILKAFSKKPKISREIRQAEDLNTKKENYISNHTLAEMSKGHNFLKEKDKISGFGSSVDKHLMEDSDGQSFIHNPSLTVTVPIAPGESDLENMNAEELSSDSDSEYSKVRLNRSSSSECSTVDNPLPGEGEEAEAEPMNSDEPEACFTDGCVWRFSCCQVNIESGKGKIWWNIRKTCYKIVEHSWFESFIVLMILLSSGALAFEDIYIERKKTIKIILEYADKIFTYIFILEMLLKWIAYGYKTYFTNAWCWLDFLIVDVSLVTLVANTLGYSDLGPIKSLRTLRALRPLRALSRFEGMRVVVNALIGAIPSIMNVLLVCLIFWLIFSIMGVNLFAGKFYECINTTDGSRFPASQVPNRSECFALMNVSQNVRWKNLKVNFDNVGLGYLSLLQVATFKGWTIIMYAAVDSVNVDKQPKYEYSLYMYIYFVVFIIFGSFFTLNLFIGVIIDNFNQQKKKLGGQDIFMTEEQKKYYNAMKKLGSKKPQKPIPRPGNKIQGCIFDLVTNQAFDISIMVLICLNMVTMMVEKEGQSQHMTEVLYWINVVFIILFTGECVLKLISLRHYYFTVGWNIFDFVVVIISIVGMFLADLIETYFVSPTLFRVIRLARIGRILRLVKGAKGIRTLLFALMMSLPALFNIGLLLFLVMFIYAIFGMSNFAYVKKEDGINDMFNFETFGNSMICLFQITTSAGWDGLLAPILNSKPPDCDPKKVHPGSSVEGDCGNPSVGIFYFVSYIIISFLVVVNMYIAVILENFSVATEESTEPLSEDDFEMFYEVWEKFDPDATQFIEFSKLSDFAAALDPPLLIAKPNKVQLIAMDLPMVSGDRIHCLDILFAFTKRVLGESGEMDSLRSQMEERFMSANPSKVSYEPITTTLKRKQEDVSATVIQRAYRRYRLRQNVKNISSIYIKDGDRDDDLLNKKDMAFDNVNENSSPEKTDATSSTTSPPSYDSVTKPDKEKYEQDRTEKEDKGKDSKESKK

[5] = PubChem; cited from earlier work

SMILES: C=CCc1ccc(O)c(OC)c1 [eugenol]
- Effect on GABA-induced current [1]: inhibits GABAA current in a reversible, dose-dependent manner
- Difference in increase in the number of chirps (30 min before vs 30 min after exposure): Median ([2]; eugenol 30 μL/L vs. Control): 97.5
- Difference in increase in the number of chirps between pairs of eugenol concentrations: Median ([2]; eugenol 45 μL/L vs. 30 μL/L): 8
- Difference in increase in the number of chirps (30 min before vs 30 min after exposure): Median ([2]; eugenol 45 μL/L vs. Control): 137
- Difference in increase in the number of chirps between pairs of eugenol concentrations: Median ([2]; eugenol 60 μL/L vs. 30 μL/L): 60.5
- Difference in increase in the number of chirps between pairs of eugenol concentrations: Median ([2]; eugenol 60 μL/L vs. 45 μL/L): 23
- Difference in increase in the number of chirps (30 min before vs 30 min after exposure): Median ([2]; eugenol 60 μL/L vs. Control): 160
- Time to a similar stage of anesthesia (zebrafish (Danio rerio)): ≤ 1.5 min
- Effect on GABAA-receptor response (GABAA receptors): potentiate GABAA-receptor response
- Fish in which the EOD amplitude collapsed to markedly lower levels ([3]; 60 μL/L eugenol, 5 min): 4 out of 8
- Time after end of exposure at which EOD amplitude reached baseline levels ([3]; eugenol, FIG. 19 recording): approximately 6 min
- Time after onset of anesthesia at which the fish's movements ceased (jittering of EOD amplitude minimal) ([3]; eugenol, FIG. 19 recording): Approximately 1.5 min
- Time to total loss of equilibrium and movement and absence of reaction to external stimuli (red garra (Garra rufa); 25 μL/L eugenol): approximately 3 min
- Time to total loss of equilibrium and movement and absence of reaction to external stimuli (red garra (Garra rufa); 50 μL/L eugenol): ~1.5 min
- Effect on epileptiform field potentials and spreading depression [4]: reversible and dose-dependent suppression
- Effect on GABA-induced current (GABAA current): inhibits GABAA current in a reversible, dose-dependent manner
- Binding to voltage-gated sodium channels (Nav 1.7): preferentially binds to such channels in the inactivated state
- octanol-water partition coefficient log kow [5]: 2.49

SMILES: CCOC(=O)c1cccc(N)c1 [MS-222, 3-aminobenzoic acid ethyl ester methanesulfonate]
- Time chirp rates remained elevated after anesthesia ([2]; 0.02% MS-222): ≤ 3 h
- Number of chirps during the 30 min immediately following anesthesia (mean) [2]: 48 chirps
- Number of chirps during the 30 min immediately following anesthesia (median) [2]: 30 chirps
- Number of chirps during the 30 min immediately following anesthesia (range among fish) [2]: 1-156 chirps

SMILES: CCOC(N)=O [urethane]
- Number of chirps during the 30 min immediately following anesthesia (mean) [2]: 1852 chirps and 1500 chirps
- Number of chirps during the 30 min immediately following anesthesia (median) [2]: 1541 chirps
- Number of chirps during the 30 min immediately following anesthesia (range among fish) [2]: 568-4434 chirps
- Time T to which type-2 chirping at higher rates persists after exposure ([2]; 2.5% urethane, single recording (FIG. 20)): ~4600 s
- octanol-water partition coefficient log kow [5]: −0.15
